This passage reports IC50 results from ChEMBL document CHEMBL3102833, “Design and synthesis of guanylthiourea derivatives as potential inhibitors of Plasmodium falciparum dihydrofolate reductase enzyme” (Bioorg Med Chem Lett, 2014).

This experiment is described as follows: Inhibition of Plasmodium falciparum recombinant dihydrofolate reductase expressed in Escherichia coli BL21 (DE3).

In the case of `N=C(N=C(N)N)SCc1cccc(I)c1`, the IC50 (in general, the concentration at which inhibition is half-maximal) amounted to 0.4 µM.

`N=C(N)/N=C(\N)SCc1cccc(CS/C(N)=N/C(=N)N)c1`: the IC50 worked out at 100 µM.
